Tests used:
[1] = test system: GR soybean cultivars A5901RR and DK5961RR; experiment: Field experiments at Keiser and Fayetteville, Arkansas: biomass and seed yield; type: in vivo, soybean (Glycine max)
Method: Field experiments were conducted at Fayetteville and Keiser, Ark., to evaluate the response of GR soybean cultivars to foliar applications of glyphosate under field conditions susceptible to drought stress. […] Delannay et al. (1995) reported three experiments out of 58 in which yields were less than 1500 kg ha^−1, but there was no indication as to the cause of these low yields. The Fayetteville experiment was conducted on a Pembroke silt loam (Ultic Paleudalfs) on 15-cm-high beds spaced 1 m apart. Water was applied as needed until mid-reproductive development (R5) with sprinkle irrigation. At Keiser the soil was a Sharkey silty-clay (Vertic Haplaquepts), and soybean was planted on a flat seedbed with rows 0.96 m apart. Irrigation was applied with an overhead, lateral-move system.
Experiments at both locations were a factorial of two cultivars and five herbicide treatments in a randomized complete block design with four replications. Plots were four rows wide by 9 m long. […] The seeding rate was 370,000 ha^−1 at both locations.
Herbicides were applied as a broadcast treatment, sprayed over-the-top of the canopy with a CO2-powered backpack sprayer in a volume of 93 L ha^−1. […] All herbicide treatments contained appropriate surfactants. Plants were at V1, V4, and V9 development stages at 7, 21, and 35 DAE application timings, respectively, at both locations. R2 applications were made at 45 and 48 DAE at Fayetteville and Keiser, respectively. Plots were maintained weed free by hand weeding as needed. Four replications of the non-nodulating isoline of the cultivar ‘Lee’ were included at each location as an indicator of plant-available soil nitrogen.
Samples were prepared and analyzed for total nitrogen as previously described. Seed yield was determined by harvesting 4.5 m from each of the center two rows. Average seed mass was determined from a random sample of 100 seeds. Biomass data were evaluated by comparing the means±standard errors between herbicide treatments within a cultivar and sample date. […]

[2] = test system: GR soybean cultivars A4501RR, A5901RR, DK5961RR, H5164RR, TV5866RR; experiment: Greenhouse Example 2: sensitivity of five GR soybean cultivars to glyphosate; type: in vivo, soybean (Glycine max); details: 40 DAE
Excerpt: The other plants were not treated and served as controls. […] The experiment was a completely random design with six replications.

Q: `O=C(O)CNCP(=O)(O)O` [glyphosate, N-(phosphonomethyl)glycine] was tested. Which Soybean seed yield ([1]; Fayetteville, A5901RR, glyphosate 1: 7 & 21 DAE) did it give?
A: Its Soybean seed yield is 2053a kg ha^−1.

Q: What about the Soybean seed yield ([1]; Fayetteville, A5901RR, glyphosate 2: 7 & 49 DAE) of the same molecule?
A: The Soybean seed yield was 2057a kg ha^−1.

Q: What about the Soybean seed yield ([1]; Fayetteville, A5901RR, glyphosate 3: 21 & 35 DAE) of the same molecule?
A: The Soybean seed yield was 1999a kg ha^−1.

Q: And the Soybean seed yield ([1]; Fayetteville, DK5961RR, glyphosate 1: 7 & 21 DAE)?
A: The Soybean seed yield was 1854a kg ha^−1.

Q: And the Soybean seed yield ([1]; Fayetteville, DK5961RR, glyphosate 2: 7 & 49 DAE)?
A: Its Soybean seed yield is 1798a kg ha^−1.

Q: What about the Soybean seed yield ([1]; Fayetteville, DK5961RR, glyphosate 3: 21 & 35 DAE) of the same molecule?
A: The Soybean seed yield was 1992a kg ha^−1.

Q: What about the “Biomass vs untreated check” value ([1]; Keiser, A5901RR, 92 DAE) of the same molecule?
A: Its value is “significantly less biomass”.

Q: What about the Soybean seed yield ([1]; Keiser, A5901RR, glyphosate 1: 1.68 kg ha^−1 at 7 & 21 DAE) of the same molecule?
A: The Soybean seed yield was 974b kg ha^−1.

Q: And the Soybean seed yield ([1]; Keiser, A5901RR, glyphosate 2: 1.68 kg ha^−1 at 7 & 49 DAE)?
A: The Soybean seed yield was 1138ab kg ha^−1.

Q: And the Soybean seed yield ([1]; Keiser, A5901RR, glyphosate 3: 1.68 kg ha^−1 at 21 & 35 DAE)?
A: Its Soybean seed yield is 1050ab kg ha^−1.

Q: What about the Yield vs check ([1]; Keiser, A5901RR, glyphosate at 7 followed by 21 DAE) of the same molecule?
A: Its Yield vs check is “significantly lower yield”.

Q: And the “Biomass vs other treatments” value ([1]; Keiser, DK5961RR, 92 DAE, glyphosate at 7 followed by 21 DAE or at 7 followed by 49 DAE)?
A: The value was “tended to be lower”.

Q: What about the Soybean seed yield ([1]; Keiser, DK5961RR, glyphosate 1: 7 & 21 DAE) of the same molecule?
A: The Soybean seed yield was 1197ab kg ha^−1.

Q: And the Soybean seed yield ([1]; Keiser, DK5961RR, glyphosate 2: 7 & 49 DAE)?
A: Its Soybean seed yield is 989b kg ha^−1.

Q: And the Soybean seed yield ([1]; Keiser, DK5961RR, glyphosate 3: 21 & 35 DAE)?
A: The Soybean seed yield was 1291a kg ha^−1.

Q: What about the Yield decrease ([1]; Keiser, DK5961RR, glyphosate at 7 followed by 21 DAE) of the same molecule?
A: Its Yield decrease is 24%.

Q: What about the “Yield lower than untreated check” value ([1]; Keiser, DK5961RR, glyphosate at 7 followed by 49 DAE) of the same molecule?
A: The value was 8%.

Q: What about the “Seed yields vs untreated check” value ([1]; Keiser, DK5961RR, other glyphosate and standard herbicide treatments) of the same molecule?
A: The value was “numerically equal to the untreated check”.

Q: What about the Shoot mass effect [2] of the same molecule?
A: The Shoot mass effect was “decreased”.

Q: And the “Biomass Nodule” value ([2]; A4501RR, E + L treatment)?
A: Its value is 0.47 g plant^−1.

Q: What about the “Biomass Root” value ([2]; A4501RR, E + L treatment) of the same molecule?
A: Its value is 1.22 g plant^−1.

Q: What about the “Biomass Shoot” value ([2]; A4501RR, E + L treatment) of the same molecule?
A: Its value is 4.55 g plant^−1.

Q: And the “Nitrogen Root” value ([2]; A4501RR, E + L treatment)?
A: The value was 45 mg plant^−1.

Q: What about the “Nitrogen Shoot” value ([2]; A4501RR, E + L treatment) of the same molecule?
A: The value was 185 mg plant^−1.

Q: And the Nodule biomass effect ([2]; A5901RR)?
A: Its Nodule biomass effect is “increased”.

Q: What about the “Biomass Nodule” value ([2]; A5901RR, E + L treatment) of the same molecule?
A: The value was 0.54 g plant^−1.

Q: What about the “Biomass Root” value ([2]; A5901RR, E + L treatment) of the same molecule?
A: The value was 0.93 g plant^−1.

Q: And the “Biomass Shoot” value ([2]; A5901RR, E + L treatment)?
A: The value was 4.03 g plant^−1.

Q: What about the “Nitrogen Root” value ([2]; A5901RR, E + L treatment) of the same molecule?
A: Its value is 45 mg plant^−1.

Q: What about the “Nitrogen Shoot” value ([2]; A5901RR, E + L treatment) of the same molecule?
A: Its value is 163 mg plant^−1.

Q: What about the Nodule mass effect ([2]; DK5961RR) of the same molecule?
A: The Nodule mass effect was “decreased”.

Q: And the “Biomass Nodule” value ([2]; DK5961RR, E + L treatment)?
A: The value was 0.40 g plant^−1.

Q: What about the “Biomass Root” value ([2]; DK5961RR, E + L treatment) of the same molecule?
A: The value was 0.74 g plant^−1.

Q: And the “Biomass Shoot” value ([2]; DK5961RR, E + L treatment)?
A: The value was 3.41 g plant^−1.

Q: What about the “Nitrogen Root” value ([2]; DK5961RR, E + L treatment) of the same molecule?
A: Its value is 31 mg plant^−1.

Q: What about the “Nitrogen Shoot” value ([2]; DK5961RR, E + L treatment) of the same molecule?
A: The value was 142 mg plant^−1.

Q: And the “Biomass Nodule” value ([2]; H5164RR, E + L treatment)?
A: Its value is 0.47 g plant^−1.

Q: What about the “Biomass Root” value ([2]; H5164RR, E + L treatment) of the same molecule?
A: Its value is 1.18 g plant^−1.

Q: What about the “Biomass Shoot” value ([2]; H5164RR, E + L treatment) of the same molecule?
A: The value was 4.36 g plant^−1.

Q: And the “Nitrogen Root” value ([2]; H5164RR, E + L treatment)?
A: The value was 46 mg plant^−1.

Q: And the “Nitrogen Shoot” value ([2]; H5164RR, E + L treatment)?
A: The value was 170 mg plant^−1.

Q: What about the “Biomass Root” value ([2]; TV5866RR, E + L treatment) of the same molecule?
A: Its value is 0.71 g plant^−1.

Q: And the “Biomass Shoot” value ([2]; TV5866RR, E + L treatment)?
A: The value was 3.07 g plant^−1.

Q: And the “Nitrogen Root” value ([2]; TV5866RR, E + L treatment)?
A: Its value is 35 mg plant^−1.

Q: And the “Nitrogen Shoot” value ([2]; TV5866RR, E + L treatment)?
A: The value was 131 mg plant^−1.

Q: And the “Biomass Nodule” value ([2]; TV5866RR, E + L: 1.68 kg ai ha^−1 at 5, 10, 18, 25, and 32 DAE)?
A: Its value is 0.34 g plant^−1.

Q: What about the “Measured biomass or nitrogen parameters” value ([2]; cultivars A5901RR or H5164RR) of the same molecule?
A: Its value is “None of the measured biomass or nitrogen parameters were decreased”.

Reference: patent publication US6872562B2, “Herbicide resistant dinitrogen fixing bacteria and method of use” (priority 2001, dated 2005)
